Two compounds from publication PMC5099976 (ACS chemical biology, 2016) can be followed below.

Molecules are shown by their SMILES.

The target in assay [1] is WT genotype 1a NS3/4A protease (Hepatitis C virus genotype 1a, UniProt P27958, C1073S/C1078L/C1185S/I1043Q/I1044E/I1098T/L1039E/L1040E/L1047Q/N1200S/T1100M/T1173A). The assay can be described thus: Isothermal titration calorimetry, WT protease. It is filed as binding. To be noted: for Ki: WT protease, Table S4. (Isothermal titration calorimetry measures the heat released or taken up as one component is titrated into another.)

The target in assay [2] is A156T NS3/4A protease variant (Hepatitis C virus genotype 1a, UniProt P27958, A1182T/C1073S/C1078L/C1185S/I1043Q/I1044E/I1098T/L1039E/L1040E/L1047Q/N1200S/T1100M/T1173A/V1687N). The format is binding. To be noted: binding A156T protease; ITC at 25 °C.
In assay [3] the test system is A156T NS3/4A protease variant. The format is binding, Hepatitis C Virus. As to conditions: A156T relative to WT; Table S4.
Setting [4] is: binding WT protease, ITC at 25 °C.

In the case of `CCc1nc2ccc(OC)cc2nc1O[C@@H]1C[C@H]2C(=O)N[C@]3(C(=O)NS(=O)(=O)C4CC4)C[C@H]3/C=C\CCCCC[C@H](NC(=O)OC(C)(C)C)C(=O)N2C1` [5172-mcP1P3], in assay [1], the inhibitory constant (Ki) came out at 1.96 nM. Also, in assay [1] (listed as P1–P3), the affinity corresponds to a Ki of 2 nM. In assay [1] (setting [4]), the enthalpy of binding was -5.8 kcal/mol and the “entropic contribution to binding (−TΔS)” value was -6.0 kcal/mol. The enthalpy of binding in assay [2] was -6.3 kcal/mol. For the same compound, in assay [3], the “enthalpic change due to A156T mutation” value was -0.5 kcal/mol and the “entropic loss due to A156T mutation” value was determined as 3.3 kcal/mol.

Take `C=C[C@@H]1C[C@]1(NC(=O)[C@@H]1C[C@@H]2CN1C(=O)[C@H](C(C)(C)C)NC(=O)O[C@@H]1C[C@H]1CCCCCc1nc3ccc(OC)cc3nc1O2)C(=O)NS(=O)(=O)C1CC1` [MK-5172, reference compound]: in assay [3], the “enthalpic change due to A156T mutation” value amounted to 2.7 kcal/mol and the “entropic loss due to A156T mutation” value amounted to 2.2 kcal/mol.

By Ki is commonly meant a dissociation constant, usually derived from enzyme kinetics or from competition with a known ligand. A higher Ki goes with weaker binding.
